Each structure is given as a SMILES string.

The target of this experiment is Cystathionine gamma-lyase (Homo sapiens, UniProt P32929).
Sequence of Cystathionine gamma-lyase (P32929 whole entry): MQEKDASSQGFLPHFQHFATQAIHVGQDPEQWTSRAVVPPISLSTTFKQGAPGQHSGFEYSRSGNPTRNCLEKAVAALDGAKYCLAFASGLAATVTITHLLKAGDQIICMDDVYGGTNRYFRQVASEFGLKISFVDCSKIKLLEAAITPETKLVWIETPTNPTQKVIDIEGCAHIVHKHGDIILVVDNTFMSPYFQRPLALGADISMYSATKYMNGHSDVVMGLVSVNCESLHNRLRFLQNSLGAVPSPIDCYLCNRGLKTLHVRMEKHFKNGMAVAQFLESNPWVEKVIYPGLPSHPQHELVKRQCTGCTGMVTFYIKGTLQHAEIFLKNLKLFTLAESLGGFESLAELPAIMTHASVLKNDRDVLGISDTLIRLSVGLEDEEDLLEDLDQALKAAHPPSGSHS
For the compound `C#CC[C@H](N)c1nc(C(F)(F)F)n[nH]1`, the IC50 – broadly, the concentration at which inhibition is half-maximal – is above 100 µM.
The same measure for `C#CC[C@@H](N)C(=O)O`: above 100 µM; for `C#CC[C@H](N)c1nc(N)n[nH]1`: above 100 µM; for `C#CC[C@H](N)c1ncn[nH]1`: below 25 µM.
Under `N#CCC(N)C(=O)O` (configuration not stated) stands below 25 µM; under `C#CCC(N)C(=O)O` (configuration not stated), below 25 µM.
The same measure for `C#CC[C@H](N)c1noc(=O)[nH]1`: below 25 µM.
